{"source": "paper PMC12072002", "about": "“Site-Directed Mutagenesis Increased the Catalytic Activity and Stability of Oenococcus oeni β-Glucosidase: Characterization of Enzymatic Properties and Exploration of Mechanisms” (International Journal of Molecular Sciences, 2025)"}
{"biological_target": "mutant IV (β-glucosidase N181R)", "assay": "not given", "type": "biochemical, Oenococcus oeni SD-2a", "parameters": "key to IC50 on Mutant IV: “-”represents no enzymatic activity", "conditions": "additive concentration 0.2%", "protocol": "(§1) The method for the determination of the effects of different metal ions and additives on enzyme activity was referred to Zhou et al., with slight modifications. […] The enzyme solutions (10 μL), p-NPG solution (490 μL) and different concentrations of additive solutions (500 μL) were mixed well. The reaction lasted for 30 min under the optimal reaction conditions of the enzyme. Then, 1mL 1 M Na2CO3 was added to terminate the reaction. The absorbance value of the reaction system was measured at 420 nm and the activity of the BGLs was calculated according to the standard curve. The IC50 (half of the maximum inhibitory concentration) of the reagents on BGL activity was calculated using a logistic function with Growth/Sigmoidal-type nonlinear fitting in Origin Pro 8.0."}
{"compound": "Triton X-100 [Triton-X100]", "IC50 on Mutant IV": "-"}
{"compound": "Tween-80", "IC50 on Mutant IV": "-"}
{"system": "mutant IV (β-glucosidase N181R)", "assay": "not given", "type": "biochemical, Oenococcus oeni SD-2a", "parameters": "key to IC50 on Mutant IV: “-”represents no enzymatic activity", "conditions": "metal ion at 5 mM", "protocol": "as §1", "units": {"inhibition rate on mutant IV": "%"}}
{"compound": "[K+]", "note": "[K^+]", "inhibition rate on mutant IV": 85.02}
{"system": "mutant IV (β-glucosidase N181R)", "assay": "not given", "type": "biochemical, Oenococcus oeni SD-2a", "parameters": "key to IC50 on Mutant IV: “-”represents no enzymatic activity", "conditions": "metal ion at 5 mM, in words", "protocol": "as §1"}
{"compound": "[Ag+]", "note": "[Ag^+]", "effect on enzyme activity of mutant IV": "inhibitory effects"}
{"compound": "[Ba+2]", "note": "[Ba^2+]", "effect on enzyme activity of mutant IV": "enhanced"}
{"compound": "[Ca+2]", "note": "[Ca^2+]", "effect on enzyme activity of mutant IV": "inhibitory effects"}
{"compound": "[Cu+2]", "note": "[Cu^2+]", "effect on enzyme activity of mutant IV": "inhibitory effects"}
{"compound": "[Fe+2]", "note": "[Fe^2+]", "effect on enzyme activity of mutant IV": "inhibitory effects"}
{"compound": "[Li+]", "note": "[Li^+]", "effect on enzyme activity of mutant IV": "enhanced"}
{"compound": "[Mg+2]", "note": "[Mg^2+]", "effect on enzyme activity of mutant IV": "inhibitory effects"}
{"compound": "[Mn+2]", "note": "[Mn^2+]", "effect on enzyme activity of mutant IV": "promoted"}
{"compound": "[Na+]", "note": "[Na^+]", "effect on enzyme activity of mutant IV": "increased"}
{"compound": "[Zn+2]", "note": "[Zn^2+]", "effect on enzyme activity of mutant IV": "inhibitory effects"}
{"biological_target": "mutant IV (β-glucosidase N181R)", "assay": "not given", "type": "biochemical, Oenococcus oeni SD-2a", "parameters": "key to IC50 on Mutant IV: “-”represents no enzymatic activity", "conditions": "metal ions and additives, Concentration 5 mM; optimum temperature and pH", "protocol": "as §1", "units": {"IC50": "mM"}}
{"compound": "[Ag+]", "note": "[Ag^+]", "IC50": 2.93}
{"compound": "[Ba+2]", "note": "[Ba^2+]", "IC50 on Mutant IV": "Activator"}
{"compound": "[Ca+2]", "note": "[Ca^2+]", "IC50": 3.28}
{"compound": "[Cu+2]", "note": "[Cu^2+]", "IC50": 1.58}
{"compound": "O[C@@H](CS)[C@@H](O)CS", "note": "[DTT]", "IC50": 6.17}
{"compound": "O=C(O)CN(CCN(CC(=O)O)CC(=O)O)CC(=O)O", "note": "[EDTA]", "IC50": 7.16}
{"compound": "[Fe+2]", "note": "[Fe^2+]", "IC50": 4.43}
{"compound": "[K+]", "note": "[K^+]", "IC50": 2.42}
{"compound": "[Li+]", "note": "[Li^+]", "IC50 on Mutant IV": "Activator"}
{"compound": "[Mg+2]", "note": "[Mg^2+]", "IC50": 5.35}
{"compound": "[Mn+2]", "note": "[Mn^2+]", "IC50 on Mutant IV": "Activator"}
{"compound": "[Na+]", "note": "[Na^+]", "IC50 on Mutant IV": "Activator"}
{"compound": "CCCCCCCCCCCCOS(=O)(=O)[O-].[Na+]", "note": "[SDS]", "IC50": 6.29}
{"compound": "[Zn+2]", "note": "[Zn^2+]", "IC50": 2.94}
{"biological_target": "mutant III (β-glucosidase F133K)", "assay": "Effects of metal ions and additives on enzyme activity (p-NPG hydrolysis, IC50)", "type": "biochemical, Oenococcus oeni SD-2a", "parameters": "key: “-”represents no enzymatic activity", "conditions": "additive concentration 0.2%"}
{"compound": "Triton X-100 [Triton-X100]", "IC50 on Mutant III": "-"}
{"compound": "Tween-80", "IC50 on Mutant III": "-"}
{"system": "wild-type enzyme (β-glucosidase BGL0224)", "assay": "Effects of metal ions and additives on enzyme activity (p-NPG hydrolysis, IC50)", "type": "biochemical, Oenococcus oeni SD-2a", "conditions": "metal ion at 5 mM", "protocol": "(§2) The method for the determination of the effects of different metal ions and additives on enzyme activity was referred to Zhou et al., with slight modifications. To determine the effects of metal ions and some additives on the BGLs’ activity, lyophilized powders of the wild-type and mutant BGLs were formulated into solutions with a final concentration of 10 mg/mL using 20 mM sodium phosphate buffer as well as 25 mM of p-NPG substrate solution and different concentrations (0.1 mM, 0.5 mM, 1.0 mM, 5.0 mM and 10 mM) of metal ion solutions (K^+, Na^+, Li^+, Ag^+, Mg^2+, Zn^2+, Ba^2+, Ca^2+, Cu^2+, Mn^2+, Fe^2+ and Fe^3+) and additive solutions (SDS, DTT, EDTA, TritonX-100 and Tween-80). The enzyme solutions (10 μL), p-NPG solution (490 μL) and different concentrations of additive solutions (500 μL) were mixed well. The reaction lasted for 30 min under the optimal reaction conditions of the enzyme. Then, 1mL 1 M Na2CO3 was added to terminate the reaction. The absorbance value of the reaction system was measured at 420 nm and the activity of the BGLs was calculated according to the standard curve. The IC50 (half of the maximum inhibitory concentration) of the reagents on BGL activity was calculated using a logistic function with Growth/Sigmoidal-type nonlinear fitting in Origin Pro 8.0.", "units": {"inhibition of wild-type enzyme activity": "%"}}
{"compound": "[Mn+2]", "note": "[Mn^2+]", "inhibition of wild-type enzyme activity": 76.51}
{"system": "wild-type enzyme (β-glucosidase BGL0224)", "assay": "Effects of metal ions and additives on enzyme activity (p-NPG hydrolysis, IC50)", "type": "biochemical, Oenococcus oeni SD-2a", "conditions": "metal ion at 5 mM, in words", "protocol": "as §2"}
{"compound": "[Ag+]", "note": "[Ag^+]", "effect on enzyme activity of the wild-type enzyme": "inhibitory effects"}
{"compound": "[Ba+2]", "note": "[Ba^2+]", "effect on enzyme activity of the wild-type enzyme": "enhanced"}
{"compound": "[Ca+2]", "note": "[Ca^2+]", "effect on enzyme activity of the wild-type enzyme": "inhibitory effects"}
{"compound": "[Cu+2]", "note": "[Cu^2+]", "effect on enzyme activity of the wild-type enzyme": "inhibitory effects"}
{"compound": "[Fe+2]", "note": "[Fe^2+]", "effect on enzyme activity of the wild-type enzyme": "inhibitory effects"}
{"compound": "[K+]", "note": "[K^+]", "effect on enzyme activity of the wild-type enzyme": "enhanced"}
{"compound": "[Li+]", "note": "[Li^+]", "effect on enzyme activity of the wild-type enzyme": "enhanced"}
{"compound": "[Mg+2]", "note": "[Mg^2+]", "effect on enzyme activity of the wild-type enzyme": "inhibitory effects"}
{"compound": "[Na+]", "note": "[Na^+]", "effect on enzyme activity of the wild-type enzyme": "increased"}
{"compound": "[Zn+2]", "note": "[Zn^2+]", "effect on enzyme activity of the wild-type enzyme": "inhibitory effects"}
{"biological_target": "wild-type enzyme (β-glucosidase BGL0224)", "assay": "Effects of metal ions and additives on enzyme activity (p-NPG hydrolysis, IC50)", "type": "biochemical, Oenococcus oeni SD-2a", "conditions": "metal ions and additives, Concentration 5 mM; optimum temperature and pH", "protocol": "as §2", "units": {"IC50": "mM"}}
{"compound": "[Ag+]", "note": "[Ag^+]", "IC50": 7.43}
{"compound": "[Ba+2]", "note": "[Ba^2+]", "IC50 on Wild-Type Enzyme": "Activator"}
{"compound": "[Ca+2]", "note": "[Ca^2+]", "IC50": 4.09}
{"compound": "[Cu+2]", "note": "[Cu^2+]", "IC50": 3.12}
{"compound": "O[C@@H](CS)[C@@H](O)CS", "note": "[DTT]", "IC50": 7.93}
{"compound": "O=C(O)CN(CCN(CC(=O)O)CC(=O)O)CC(=O)O", "note": "[EDTA]", "IC50": 6.41}
{"compound": "[Fe+2]", "note": "[Fe^2+]", "IC50": 2.83}
{"compound": "[K+]", "note": "[K^+]", "IC50 on Wild-Type Enzyme": "Activator"}
{"compound": "[Li+]", "note": "[Li^+]", "IC50 on Wild-Type Enzyme": "Activator"}
{"compound": "[Mg+2]", "note": "[Mg^2+]", "IC50": 8.92}
{"compound": "[Mn+2]", "note": "[Mn^2+]", "IC50": 3.76}
{"compound": "[Na+]", "note": "[Na^+]", "IC50 on Wild-Type Enzyme": "Activator"}
{"compound": "CCCCCCCCCCCCOS(=O)(=O)[O-].[Na+]", "note": "[SDS]", "IC50": 7.89}
{"compound": "[Zn+2]", "note": "[Zn^2+]", "IC50": 3.87}
{"system": "mutant III (β-glucosidase F133K)", "assay": "Effects of metal ions and additives on enzyme activity (p-NPG hydrolysis, IC50)", "type": "biochemical, Oenococcus oeni SD-2a", "conditions": "metal ion at 5 mM", "protocol": "as §2", "units": {"inhibition rate on mutant III": "%"}}
{"compound": "[Na+]", "note": "[Na^+]", "inhibition rate on mutant III": 97.45}
{"system": "mutant III (β-glucosidase F133K)", "assay": "Effects of metal ions and additives on enzyme activity (p-NPG hydrolysis, IC50)", "type": "biochemical, Oenococcus oeni SD-2a", "conditions": "metal ion at 5 mM, in words", "protocol": "as §2"}
{"compound": "[Ag+]", "note": "[Ag^+]", "effect on enzyme activity of mutant III": "inhibitory effects"}
{"compound": "[Ba+2]", "note": "[Ba^2+]", "effect on enzyme activity of mutant III": "enhanced"}
{"compound": "[Ca+2]", "note": "[Ca^2+]", "effect on enzyme activity of mutant III": "inhibitory effects"}
{"compound": "[Cu+2]", "note": "[Cu^2+]", "effect on enzyme activity of mutant III": "inhibitory effects"}
{"compound": "[Fe+2]", "note": "[Fe^2+]", "effect on enzyme activity of mutant III": "inhibitory effects"}
{"compound": "[K+]", "note": "[K^+]", "effect on enzyme activity of mutant III": "enhanced"}
{"compound": "[Li+]", "note": "[Li^+]", "effect on enzyme activity of mutant III": "enhanced"}
{"compound": "[Mg+2]", "note": "[Mg^2+]", "effect on enzyme activity of mutant III": "inhibitory effects"}
{"compound": "[Mn+2]", "note": "[Mn^2+]", "effect on enzyme activity of mutant III": "promoted"}
{"compound": "[Zn+2]", "note": "[Zn^2+]", "effect on enzyme activity of mutant III": "inhibitory effects"}
{"biological_target": "mutant III (β-glucosidase F133K)", "assay": "Effects of metal ions and additives on enzyme activity (p-NPG hydrolysis, IC50)", "type": "biochemical, Oenococcus oeni SD-2a", "conditions": "metal ions and additives, Concentration 5 mM; optimum temperature and pH", "protocol": "as §2", "units": {"IC50": "mM"}}
{"compound": "[Ag+]", "note": "[Ag^+]", "IC50": 3.03}
{"compound": "[Ba+2]", "note": "[Ba^2+]", "IC50 on Mutant III": "Activator"}
{"compound": "[Ca+2]", "note": "[Ca^2+]", "IC50": 3.38}
{"compound": "[Cu+2]", "note": "[Cu^2+]", "IC50": 3.48}
{"compound": "O[C@@H](CS)[C@@H](O)CS", "note": "[DTT]", "IC50": 5.49}
{"compound": "O=C(O)CN(CCN(CC(=O)O)CC(=O)O)CC(=O)O", "note": "[EDTA]", "IC50": 6.89}
{"compound": "[Fe+2]", "note": "[Fe^2+]", "IC50": 3.96}
{"compound": "[K+]", "note": "[K^+]", "IC50 on Mutant III": "Activator"}
{"compound": "[Li+]", "note": "[Li^+]", "IC50 on Mutant III": "Activator"}
{"compound": "[Mg+2]", "note": "[Mg^2+]", "IC50": 3.37}
{"compound": "[Mn+2]", "note": "[Mn^2+]", "IC50 on Mutant III": "Activator"}
{"compound": "[Na+]", "note": "[Na^+]", "IC50": 0.929}
{"compound": "CCCCCCCCCCCCOS(=O)(=O)[O-].[Na+]", "note": "[SDS]", "IC50": 6.72}
{"compound": "[Zn+2]", "note": "[Zn^2+]", "IC50": 3.19}
{"biological_target": "wild-type enzyme (β-glucosidase BGL0224)", "assay": "Effects of metal ions and additives on enzyme activity (p-NPG hydrolysis, IC50)", "type": "biochemical, Oenococcus oeni SD-2a", "parameters": "key: “-”represents no enzymatic activity", "conditions": "additive concentration 0.2%"}
{"compound": "Triton X-100 [Triton-X100]", "IC50 on Wild-Type Enzyme": "-"}
{"compound": "Tween-80", "IC50 on Wild-Type Enzyme": "-"}
